What was measured:
Type in all cases: in vivo
[1] = tested on: Japanese bulrush (Scirpus juncoides); assay: Test Example 4: paddy field pot, water application; conditions: 63 g/ha, 14th day after application
Excerpt: (§1) Paddy field soil was put into a 1/1,000,000 hectare pot, and seeds of barnyardgrass (Echinochloa oryzicola vasing.) and Japanese bulrush (Scirpus juncoides) were sown and lightly covered with soil. Then, pot was left to stand in a greenhouse in a state irrigated to a water depth of from 0.5 to 1 cm, and next day or two days later, tubers of Japanese ribbon waparo (Sagittaria pygmaea) were planted. Then, the irrigated water depth was maintained to be from 3 to 4 cm, and when barnyardgrass and Japanese bulrush reached 0.5 leaf stage, and Japanese ribbon waparo reached primary leaf stage, a water diluted solution of a wettable powder or an emulsifieable concentrate of the compound of the present invention prepared in accordance with a conventional preparation method, was uniformly dropwise applied by a pipette so that the amount of active ingredients would be a prescribed amount. Further, paddy field soil was put into a 1/1,000,000 pot, followed by soil puddling to an irrigated water depth of from 3 to 4 cm. Next day, rice (Oryza sativa L.) (var.: Nihonbare) of two leaf stage was transplanted in a transplantation depth of 3 cm. On the 4th day after transplantation, the compound of the present invention was applied in the same manner as described above.

[2] = tested on: barnyardgrass (Echinochloa oryzicola vasing.); assay: Test Example 4: paddy field pot, water application; conditions: 63 g/ha, 14th day after application
Excerpt: as §1

[3] = tested on: Japanese ribbon waparo (Sagittaria pygmaea); assay: Test Example 4: paddy field pot, water application; conditions: 63 g/ha, 14th day after application
Excerpt: as §1

[4] = tested on: guineagrass (Panicum maximum Jacq.); assay: Test Example 3: foliar treatment, comparison with reference compounds; conditions: 3.5 to 4.3 leaf stage; for inhibition at 3.5 g/ha: Megathyrsus maximus, 18th day after application, read-out: Growth inhibition rate (%) (18th day after application) Guineagrass
Excerpt: (§2) Upland field soil was put into a 1/1,000,000 hectare pot, and seeds of various plants were sown. […] The spray solutions thus prepared were applied for foliar treatment by a small sprayer.

[5] = tested on: velvetleaf (Abutilon theophrasti MEDIC.); assay: as above; conditions: 3.3 to 4.3 leaf stage; for inhibition at 15 g/ha: Abutilon theophrasti, 22nd day after application, read-out: Growth inhibition rate (%) (22nd day after application) Velvet leaf
Excerpt: as §2

corn (Zea mays L.) [6] = assay: as above; conditions: 4.0 to 4.3 leaf stage, crop
Excerpt: as §2

[7] = tested on: green foxtail (Setaria viridis L.); assay: as above; conditions: 4.0 to 4.5 leaf stage; for inhibition at 3.5 g/ha / inhibition at 7 g/ha: Setaria viridis, 17th day after application, read-out: Growth inhibition rate (%) (17th day after application) Green foxtail
Excerpt: as §2

[8] = tested on: barnyardgrass (Echinochloa crus-galli L.); assay: Test Example 1: foliar treatment, upland pot; conditions: 21st day after application
Excerpt: (§3) Upland field soil was put into a 1/170,000 hectare pot, and seeds of various plants were sown. When the respective plants reached predetermined leaf stage ((1) barnyardgrass (Echinochloa crus-galli L.): 1.0 to 3.3 leaf stage, (2) crabgrass (Digitaria sanguinalis L.): 1.2 to 3.0 leaf stage, (3) green foxtail (Setaria viridis L.): 1.5 to 3.3 leaf stage, (4) redroot pigweed (Amaranthus retroflexus L.): 0.1 to 2.0 leaf stage, (5) prickly sida (Sida spinosa L.): cotyledon stage to 2.0 leaf stage, (6) velvetleaf (Abutilon theophrasti MEDIC.): 0.1 to 2.0 leaf stage, (7) rice (Oryza sativa L.): 1.3 to 3.0 leaf stage, (8) corn (Zea mays L.): 2.5 to 3.4 leaf stage, and (9) soybean (Glycine max Merr.): primary leaf stage to 0.3 leaf stage), wettable powders or emulsifiable concentrates of the compounds of the present invention prepared in accordance with a conventional preparation method, were weighed so that the active ingredients became the prescribed amounts, and diluted with water in an amount corresponding to 500 liter per 1 hectare (containing 0.1 vol % of an agricultural spreader (“KUSARINOH”, manufactured by NIHON NOHYAKU CO., LTD.)). The spray solutions thus prepared were applied for foliar treatment by a small sprayer.

[9] = tested on: crabgrass (Digitaria sanguinalis L.); assay: Test Example 1: foliar treatment, upland pot; conditions: 21st day after application
Excerpt: as §3

rice (Oryza sativa L.) [10] = assay: Test Example 1: foliar treatment, upland pot; conditions: 21st day after application, crop
Excerpt: as §3

corn (Zea mays L.) [11] = assay: Test Example 1: foliar treatment, upland pot; conditions: 21st day after application, crop
Excerpt: as §3

[12] = tested on: redroot pigweed (Amaranthus retroflexus L.); assay: Test Example 1: foliar treatment, upland pot; conditions: 21st day after application
Excerpt: as §3

[13] = tested on: prickly sida (Sida spinosa L.); assay: Test Example 1: foliar treatment, upland pot; conditions: 21st day after application
Excerpt: as §3

[14] = tested on: green foxtail (Setaria viridis L.); assay: Test Example 1: foliar treatment, upland pot; conditions: 21st day after application
Excerpt: as §3

[15] = tested on: soybean (Glycine max Merr.); assay: Test Example 1: foliar treatment, upland pot; conditions: 21st day after application, crop
Excerpt: as §3

[16] = tested on: velvetleaf (Abutilon theophrasti MEDIC.); assay: Test Example 1: foliar treatment, upland pot; conditions: 21st day after application
Excerpt: Upland field soil was put into a 1/170,000 hectare pot, and seeds of various plants were sown. […] The spray solutions thus prepared were applied for foliar treatment by a small sprayer.

[17] = tested on: rice (Oryza sativa L.) (var.: Nihonbare); assay: Test Example 4: paddy field pot, water application, transplanted rice; conditions: 63 g/ha, 21st day after application, crop
Excerpt: as §1

[18] = tested on: barnyardgrass (Echinochloa crus-galli L.); assay: Test Example 2: soil application on the day after sowing; conditions: 250 g/ha, 19th to 22nd day after application
Excerpt: (§4) Upland field soil was put into a 1/170,000 hectare pot, and seeds of various plants (barnyardgrass (Echinochloa crus-galli L.), crabgrass (Digitaria sanguinalis L.), green foxtail (Setaria viridis L.), redroot pigweed (Amaranthus retroflexus L.), prickly sida (Sida spinosa L.), velvetleaf (Abutilon theophrasti MEDIC.), rice (oryza sativa L.), corn (Zea mays L.) and soybean (Glycine max Merr.)) were sown. On the day after sowing, wettable powders or emulsifiable concentrates of the compounds of the present invention prepared in accordance with a conventional preparation method, were weighed so that the active ingredients became the prescribed amounts, and diluted with water in an amount corresponding to 500 liter per 1 hectare, followed by soil application with a small sprayer.

[19] = tested on: crabgrass (Digitaria sanguinalis L.); assay: as above; conditions: 250 g/ha, 19th to 22nd day after application
Excerpt: as §4

[20] = tested on: velvetleaf (Abutilon theophrasti MEDIC.); assay: as above; conditions: 250 g/ha, 19th to 22nd day after application
Excerpt: as §4

rice (Oryza sativa L.) [21] = assay: as above; conditions: 250 g/ha, 19th to 22nd day after application, crop
Excerpt: as §4

corn (Zea mays L.) [22] = assay: as above; conditions: 250 g/ha, 19th to 22nd day after application, crop
Excerpt: as §4

[23] = tested on: redroot pigweed (Amaranthus retroflexus L.); assay: as above; conditions: 250 g/ha, 19th to 22nd day after application
Excerpt: as §4

[24] = tested on: prickly sida (Sida spinosa L.); assay: as above; conditions: 250 g/ha, 19th to 22nd day after application
Excerpt: as §4

[25] = tested on: green foxtail (Setaria viridis L.); assay: as above; conditions: 250 g/ha, 19th to 22nd day after application
Excerpt: as §4

[26] = tested on: soybean (Glycine max Merr.); assay: as above; conditions: 250 g/ha, 19th to 22nd day after application, crop
Excerpt: as §4

| SMILES | Growth inhibition rate (%) Japanese bulrush [1] [%] | Growth inhibition rate (%) Barnyardgrass [2] [%] | Growth inhibition rate (%) Japanese ribbon waparo [3] [%] | Growth inhibition rate (%) Barnyardgrass ([8]; 7 g/ha) [%] | Growth inhibition rate (%) Crabgrass ([9]; 7 g/ha) [%] | Growth inhibition rate (%) Rice (rice (Oryza sativa L.) [10]; 7 g/ha) [%] | Growth inhibition rate (%) Corn (corn (Zea mays L.) [11]; 7 g/ha) [%] | Growth inhibition rate (%) Redroot pigweed ([12]; 7 g/ha) [%] | Growth inhibition rate (%) Prickly sida ([13]; 7 g/ha) [%] | Growth inhibition rate (%) Green foxtail ([14]; 7 g/ha) [%] | Growth inhibition rate (%) Soybean ([15]; 7 g/ha) [%] | Growth inhibition rate (%) Rice [17] [%] | Growth inhibition rate (%) Barnyardgrass [18] [%] | Growth inhibition rate (%) Crabgrass [19] [%] | Growth inhibition rate (%) Velvetleaf [20] [%] | Growth inhibition rate (%) Rice (rice (Oryza sativa L.) [21]) [%] | Growth inhibition rate (%) Corn (corn (Zea mays L.) [22]) [%] | Growth inhibition rate (%) Redroot pigweed [23] [%] | Growth inhibition rate (%) Prickly sida [24] [%] | Growth inhibition rate (%) Green foxtail [25] [%] | other results |
| --- | --- | --- | --- | --- | --- | --- | --- | --- | --- | --- | --- | --- | --- | --- | --- | --- | --- | --- | --- | --- | --- |
| CCOC(=O)OC(C)Oc1c(C(=O)c2ccc(S(C)(=O)=O)c(OCCOC)c2C)cnn1C (stereo not shown) [Compound No. 2, 1-(4-(3-(2-methoxyethoxy)-2-methyl-4-(methylsulfonyl)benzoyl)-1-methyl-1H-pyrazol-5-yloxy)ethyl ethylcarbonate] | 60 | 100 | 95 | 100 | 95 | 80 | 0 | 100 | 40 | 95 | 80 | 50 | 100 | 100 | 60 | 98 | 0 | 100 | 70 | 100 | Growth inhibition rate (%) (18th day after application) Guineagrass ([4]; 3.5 g/ha): 90%; Growth inhibition rate (%) (22nd day after application) Velvet leaf ([5]; 15 g/ha): 94%; Growth inhibition rate (%) (21st day after application) Corn (corn (Zea mays L.) [6]; 120 g/ha): 4%; Growth inhibition rate (%) (17th day after application) Green foxtail ([7]; 3.5 g/ha): 93%; Growth inhibition rate (%) (17th day after application) Green foxtail ([7]; 7 g/ha): 98%; Growth inhibition rate (%) Barnyardgrass ([8]; 63 g/ha): 100%; Growth inhibition rate (%) Crabgrass ([9]; 63 g/ha): 100%; Growth inhibition rate (%) Rice (rice (Oryza sativa L.) [10]; 63 g/ha): 70%; Growth inhibition rate (%) Corn (corn (Zea mays L.) [11]; 63 g/ha): 0%; Growth inhibition rate (%) Redroot pigweed ([12]; 63 g/ha): 100%; Growth inhibition rate (%) Prickly sida ([13]; 63 g/ha): 85%; Growth inhibition rate (%) Green foxtail ([14]; 63 g/ha): 100%; Growth inhibition rate (%) Soybean ([15]; 63 g/ha): 98%; Growth inhibition rate (%) Velvetleaf ([16]; 63 g/ha): 100%; Growth inhibition rate (%) Soybean [26]: 0% |
| COCCOc1c(S(C)(=O)=O)ccc(C(=O)c2cnn(C(C)C)c2O)c1Cl [Reference Compound 2] |  |  |  |  |  |  |  |  |  |  |  |  |  |  |  |  |  |  |  |  | inhibition at 3.5 g/ha [4]: 0%; inhibition at 15 g/ha [5]: 40%; inhibition at 120 g/ha (corn (Zea mays L.) [6]; Zea mays, 21st day after application, read-out: Growth inhibition rate (%) (21st day after application) Corn): 28%; inhibition at 3.5 g/ha ([7]; 3.5 g/ha): 30%; inhibition at 7 g/ha ([7]; 7 g/ha): 45% |
| CCOC(=O)OC(C)Oc1c(C(=O)c2ccc(S(C)(=O)=O)c(OCCOC)c2C)c(C)nn1C (racemic) [compound 11] | 100 | 98 | 60 | 90 | 90 | 80 | 0 | 80 | 10 | 90 | 70 | 60 | 100 | 100 | 70 | 100 | 0 | 100 | 40 | 100 | Growth inhibition rate (%) Velvetleaf ([16]; 7 g/ha): 60%; Growth inhibition rate (%) Soybean [26]: 20% |
| CCOC(=O)OC(C)Oc1c(C(=O)c2ccc(S(C)(=O)=O)c(OCCOC)c2C)cnn1CC (racemic) [compound 3] | 95 | 100 | 90 | 95 | 95 | 80 | 0 | 90 | 10 | 100 | 70 | 40 | 100 | 100 | 80 | 100 | 0 | 100 | 50 | 100 | Growth inhibition rate (%) Velvetleaf ([16]; 7 g/ha): 90%; Growth inhibition rate (%) Soybean [26]: 20% |
| CCn1ncc(C(=O)c2ccc(S(C)(=O)=O)c(OCCOC)c2Cl)c1O [Reference Compound 1] |  |  |  |  |  |  |  |  |  |  |  |  |  |  |  |  |  |  |  |  | inhibition at 3.5 g/ha [4]: 0%; inhibition at 15 g/ha [5]: 20%; inhibition at 3.5 g/ha ([7]; 3.5 g/ha): 35%; inhibition at 7 g/ha ([7]; 7 g/ha): 55% |
